System: marine bacteria (26 strains)
Experiment: Disk inhibition assay
Type: cell-based, marine bacteria isolated from Singapore fouling communities
Conditions: for zone of inhibition at 10 µg/disc: 10 μg per disc; for zone of inhibition at 25 µg/disc: 25 μg per disc; for zone of inhibition at 5 µg/disc: 5 μg per disc; for zone of inhibition at 15 µg/disc: 15 μg per disc
Description: Preparation of Drugs onto Disks for Assay
The non-antibiotic pharmaceuticals of Table 1 were prepared in the following way. A tablet with a known amount of active ingredient (as stated in the product information) was ground in a mortar and pestle and suspended in sterile deionized water to a concentration of 2 mg ml^−1. These samples were sonicated for at least 1 min. […] The two halves of the capsule were separated and the powder released straight into a bottle and suitable amount of water added to make a concentration of 2 mg ml^−1.
As a comparison to the pharmaceuticals, to determine the susceptibility of the bacterial isolates to conventional antibiotics, commercially available antibiotic discs were used. Antibiotic discs (Oxoid® CT series) containing Ampicillin [Amp] (2 and 10 μg), Erythromycin [Ery] (5 and 15 μg), Streptomycin [Str] (10 and 25 μg) and Tetracycline [Tet] (5 and 30 μg) were placed on lawns of the bacterial strains inoculated as described below.
Sterile swabs dipped into the cultures were used to inoculate Marine Agar plates with a bacterial lawn by smearing the culture over the surface. After inoculating the plates, discs with antibiotics, pharmaceuticals or control blanks were placed on each plate. Each concentration of antibiotic or pharmaceutical was tested with three replicates on three separate occasions. After the disks were placed on the agar surface, plates were incubated overnight in the dark at 30° C. After incubation, plates were examined for zones of inhibition or clearing around control and treated disks. The diameter of any zone of clearing or inhibition was measured using Vernier calipers.
The assay was repeated three times with three replicates for each concentration used, each time.

## [H]/N=C(/N)N[C@H]1[C@H](O)[C@@H](O)[C@H](O[C@@H]2O[C@@H](C)[C@](O)(C=O)[C@H]2O[C@@H]2O[C@@H](CO)[C@H](O)[C@@H](O)[C@@H]2NC)[C@@H](N/C(N)=N\[H])[C@@H]1O [Str, streptomycin]
Strain 1 (Rhodovulum)
  zone of inhibition at 10 µg/disc: 10 to 19 mm
  zone of inhibition at 25 µg/disc: 20 to 29 mm
Strain 2 (Erythrobacter)
  zone of inhibition at 10 µg/disc: < 6 mm
  zone of inhibition at 25 µg/disc: < 6 mm
Strain 3 (Erythrobacter)
  zone of inhibition at 10 µg/disc: < 6 mm
  zone of inhibition at 25 µg/disc: < 6 mm
Strain 4 (Bacillus)
  zone of inhibition at 10 µg/disc: 10 to 19 mm
  zone of inhibition at 25 µg/disc: 10 to 19 mm
Strain 6 (Vibrio)
  zone of inhibition at 10 µg/disc: < 6 mm
  zone of inhibition at 25 µg/disc: 10 to 19 mm
Strain 7 (Vibrio)
  zone of inhibition at 10 µg/disc: 10 to 19 mm
  zone of inhibition at 25 µg/disc: 10 to 19 mm
Strain 8 (Bacillus)
  zone of inhibition at 10 µg/disc: 10 to 19 mm
  zone of inhibition at 25 µg/disc: 10 to 19 mm
Strain 9 (Bacillus)
  zone of inhibition at 10 µg/disc: 10 to 19 mm
  zone of inhibition at 25 µg/disc: 10 to 19 mm
Strain 10 (Halobacillus)
  zone of inhibition at 10 µg/disc: 10 to 19 mm
  zone of inhibition at 25 µg/disc: 10 to 19 mm
Strain 11 (Pseudomonas)
  zone of inhibition at 10 µg/disc: 10 to 19 mm
  zone of inhibition at 25 µg/disc: 20 to 29 mm
Strain 12 (Gordonia)
  zone of inhibition at 10 µg/disc: < 6 mm
  zone of inhibition at 25 µg/disc: 10 to 19 mm
Strain 13 (Bacillus)
  zone of inhibition at 10 µg/disc: 10 to 19 mm
  zone of inhibition at 25 µg/disc: 10 to 19 mm
Strain 14 (Vibrio)
  zone of inhibition at 10 µg/disc: < 6 mm
  zone of inhibition at 25 µg/disc: 6 to 9 mm
Strain 16 (Pseudoalteromonas)
  zone of inhibition at 10 µg/disc: 6 to 9 mm
  zone of inhibition at 25 µg/disc: 10 to 19 mm
Strain 17 (Gordonia)
  zone of inhibition at 10 µg/disc: 10 to 19 mm
  zone of inhibition at 25 µg/disc: 10 to 19 mm
Strain 18 (Microbacterium)
  zone of inhibition at 10 µg/disc: 10 to 19 mm
  zone of inhibition at 25 µg/disc: 10 to 19 mm
Strain 19 (Erythrobacter)
  zone of inhibition at 10 µg/disc: < 6 mm
  zone of inhibition at 25 µg/disc: < 6 mm
Strain 20
  zone of inhibition at 10 µg/disc: < 6 mm
  zone of inhibition at 25 µg/disc: < 6 mm
Strain 21
  zone of inhibition at 10 µg/disc: 10 to 19 mm
  zone of inhibition at 25 µg/disc: 10 to 19 mm
Strain 22
  zone of inhibition at 10 µg/disc: 6 to 9 mm
  zone of inhibition at 25 µg/disc: 20 to 29 mm
Strain 24
  zone of inhibition at 10 µg/disc: < 6 mm
  zone of inhibition at 25 µg/disc: 20 to 29 mm
Strain 26
  zone of inhibition at 10 µg/disc: < 6 mm
  zone of inhibition at 25 µg/disc: 20 to 29 mm
Strain 27
  zone of inhibition at 10 µg/disc: < 6 mm
  zone of inhibition at 25 µg/disc: < 6 mm
Strain 28
  zone of inhibition at 10 µg/disc: 10 to 19 mm
  zone of inhibition at 25 µg/disc: 10 to 19 mm
Strain 29
  zone of inhibition at 10 µg/disc: 10 to 19 mm
  zone of inhibition at 25 µg/disc: 10 to 19 mm
Strain 30
  zone of inhibition at 10 µg/disc: 10 to 19 mm
  zone of inhibition at 25 µg/disc: 10 to 19 mm

## CC[C@H]1OC(=O)[C@H](C)[C@@H](O[C@H]2C[C@@](C)(OC)[C@@H](O)[C@H](C)O2)[C@H](C)[C@@H](O[C@@H]2O[C@H](C)C[C@H](N(C)C)[C@H]2O)[C@](C)(O)C[C@@H](C)C(=O)[C@H](C)[C@@H](O)[C@]1(C)O [Ery, erythromycin]
Commercial antibiotic discs, in words
  Effectiveness of antibiotics against strains of marine bacteria: effective against most of the strains of marine bacteria
Strain 1 (Rhodovulum)
  zone of inhibition at 5 µg/disc: < 6 mm
  zone of inhibition at 15 µg/disc: < 6 mm
Strain 2 (Erythrobacter)
  zone of inhibition at 5 µg/disc: < 6 mm
  zone of inhibition at 15 µg/disc: 20 to 29 mm
Strain 3 (Erythrobacter)
  zone of inhibition at 5 µg/disc: 10 to 19 mm
  zone of inhibition at 15 µg/disc: 20 to 29 mm
Strain 4 (Bacillus)
  zone of inhibition at 5 µg/disc: > 40 mm
  zone of inhibition at 15 µg/disc: 30 to 39 mm
Strain 6 (Vibrio)
  zone of inhibition at 5 µg/disc: < 6 mm
  zone of inhibition at 15 µg/disc: 10 to 19 mm
Strain 7 (Vibrio)
  zone of inhibition at 5 µg/disc: 10 to 19 mm
  zone of inhibition at 15 µg/disc: 10 to 19 mm
Strain 8 (Bacillus)
  zone of inhibition at 5 µg/disc: 20 to 29 mm
  zone of inhibition at 15 µg/disc: 30 to 39 mm
Strain 9 (Bacillus)
  zone of inhibition at 5 µg/disc: 30 to 39 mm
  zone of inhibition at 15 µg/disc: 30 to 39 mm
Strain 10 (Halobacillus)
  zone of inhibition at 5 µg/disc: 30 to 39 mm
  zone of inhibition at 15 µg/disc: > 40 mm
Strain 11 (Pseudomonas)
  zone of inhibition at 5 µg/disc: 20 to 29 mm
  zone of inhibition at 15 µg/disc: 20 to 29 mm
Strain 12 (Gordonia)
  zone of inhibition at 5 µg/disc: < 6 mm
  zone of inhibition at 15 µg/disc: 10 to 19 mm
Strain 13 (Bacillus)
  zone of inhibition at 5 µg/disc: 20 to 29 mm
  zone of inhibition at 15 µg/disc: 20 to 29 mm
Strain 14 (Vibrio)
  zone of inhibition at 5 µg/disc: < 6 mm
  zone of inhibition at 15 µg/disc: 10 to 19 mm
Strain 16 (Pseudoalteromonas)
  zone of inhibition at 5 µg/disc: 10 to 19 mm
  zone of inhibition at 15 µg/disc: 6 to 9 mm
Strain 17 (Gordonia)
  zone of inhibition at 5 µg/disc: > 40 mm
  zone of inhibition at 15 µg/disc: > 40 mm
Strain 18 (Microbacterium)
  zone of inhibition at 5 µg/disc: 6 to 9 mm
  zone of inhibition at 15 µg/disc: 10 to 19 mm
Strain 19 (Erythrobacter)
  zone of inhibition at 5 µg/disc: 20 to 29 mm
  zone of inhibition at 15 µg/disc: 20 to 29 mm
Strain 20
  zone of inhibition at 5 µg/disc: 10 to 19 mm
  zone of inhibition at 15 µg/disc: 20 to 29 mm
Strain 21
  zone of inhibition at 5 µg/disc: 20 to 29 mm
  zone of inhibition at 15 µg/disc: 20 to 29 mm
Strain 22
  zone of inhibition at 5 µg/disc: 10 to 19 mm
  zone of inhibition at 15 µg/disc: 30 to 39 mm
Strain 24
  zone of inhibition at 5 µg/disc: 20 to 29 mm
  zone of inhibition at 15 µg/disc: 20 to 29 mm
Strain 26
  zone of inhibition at 5 µg/disc: 20 to 29 mm
  zone of inhibition at 15 µg/disc: 20 to 29 mm
Strain 27
  zone of inhibition at 5 µg/disc: 20 to 29 mm
  zone of inhibition at 15 µg/disc: 20 to 29 mm
Strain 28
  zone of inhibition at 5 µg/disc: 20 to 29 mm
  zone of inhibition at 15 µg/disc: 20 to 29 mm
Strain 29
  zone of inhibition at 5 µg/disc: 30 to 39 mm
  zone of inhibition at 15 µg/disc: 20 to 29 mm
Strain 30
  zone of inhibition at 5 µg/disc: 20 to 29 mm
  zone of inhibition at 15 µg/disc: 20 to 29 mm
